Laboratory results taken from ChEMBL document CHEMBL4627246, “Pyroglutamide-Based P2X7 Receptor Antagonists Targeting Inflammatory Bowel Disease” (J Med Chem, 2020).

What was measured:
Type in all cases: cell-based
786-0 = experiment: Cytotoxicity against human 786-0 cells assessed as effect on cell growth at 10 uM incubated for 48 hrs by sulforhodamine B assay; conditions: 786-0, 48 h
OVCAR-3 = experiment: Cytotoxicity against human OVCAR3 cells assessed as effect on cell growth at 10 uM incubated for 48 hrs by sulforhodamine B assay; conditions: ovcar-3, 48 h
MDA-MB-435 = experiment: Cytotoxicity against human MDA-MB-435 cells assessed as effect on cell growth at 10 uM incubated for 48 hrs by sulforhodamine B assay; conditions: mda-mb-435, 48 h
UO-31 = experiment: Cytotoxicity against human UO31 cells assessed as effect on cell growth at 10 uM incubated for 48 hrs by sulforhodamine B assay; conditions: uo-31, 48 h
OVCAR-8 = experiment: Cytotoxicity against human OVCAR8 cells assessed as effect on cell growth at 10 uM incubated for 48 hrs by sulforhodamine B assay; conditions: ovcar-8, 48 h
HCT-116 = experiment: Cytotoxicity against human HCT116 cells assessed as effect on cell growth at 10 uM incubated for 48 hrs by sulforhodamine B assay; conditions: hct-116, 48 h
DU-145 = experiment: Cytotoxicity against human DU145 cells assessed as effect on cell growth at 10 uM incubated for 48 hrs by sulforhodamine B assay; conditions: du-145, 48 h
MCF7 = experiment: Cytotoxicity against human MCF7 cells assessed as effect on cell growth at 10 uM incubated for 48 hrs by sulforhodamine B assay; conditions: mcf7, 48 h
SF-539 = experiment: Cytotoxicity against human SF539 cells assessed as effect on cell growth at 10 uM incubated for 48 hrs by sulforhodamine B assay; conditions: sf-539, 48 h
UACC-62 = experiment: Cytotoxicity against human UACC62 cells assessed as effect on cell growth at 10 uM incubated for 48 hrs by sulforhodamine B assay; conditions: uacc-62, 48 h
RXF 393 = experiment: Cytotoxicity against human RXF393 cells assessed as effect on cell growth at 10 uM incubated for 48 hrs by sulforhodamine B assay; conditions: rxf 393, 48 h
TK-10 = experiment: Cytotoxicity against human TK10 cells assessed as effect on cell growth at 10 uM incubated for 48 hrs by sulforhodamine B assay; conditions: tk-10, 48 h
T47D = experiment: Cytotoxicity against human T47D cells assessed as effect on cell growth at 10 uM incubated for 48 hrs by sulforhodamine B assay
OVCAR-5 = experiment: Cytotoxicity against human OVCAR5 cells assessed as effect on cell growth at 10 uM incubated for 48 hrs by sulforhodamine B assay; conditions: ovcar-5, 48 h
MDA-MB-468 = experiment: Cytotoxicity against human MDA-MB-468 cells assessed as effect on cell growth at 10 uM incubated for 48 hrs by sulforhodamine B assay; conditions: mda-mb-468, 48 h
SNB-19 = experiment: Cytotoxicity against human SNB19 cells assessed as effect on cell growth at 10 uM incubated for 48 hrs by sulforhodamine B assay; conditions: snb-19, 48 h
A498 = experiment: Cytotoxicity against human A498 cells assessed as effect on cell growth at 10 uM incubated for 48 hrs by sulforhodamine B assay; conditions: a498, 48 h
SK-MEL-2 = experiment: Cytotoxicity against human SK-MEL-2 cells assessed as effect on cell growth at 10 uM incubated for 48 hrs by sulforhodamine B assay; conditions: sk-mel-2, 48 h
HCC 2998 = experiment: Cytotoxicity against human HCC2998 cells assessed as effect on cell growth at 10 uM incubated for 48 hrs by sulforhodamine B assay; conditions: hcc 2998, 48 h
HT-29 = experiment: Cytotoxicity against human HT-29 cells assessed as effect on cell growth at 10 uM incubated for 48 hrs by sulforhodamine B assay; conditions: ht-29, 48 h

Measured: Activity

O=C1N[C@H](C(=O)NCc2ccc(Cl)cc2Cl)C/C1=C/NCc1ccc(Cl)cc1Cl
Non-Toxic: all assays above

O=C(NCc1ccc(Cl)cc1Cl)[C@@H]1CCC(=O)N1Cc1ccccc1
Non-Toxic: all assays above

O=C1N[C@H](C(=O)NCc2ccc(Cl)cc2Cl)CO1
Non-Toxic: all assays above

O=C(NCc1ccc(Cl)cc1Cl)c1ccccn1
Non-Toxic: all assays above

C[n+]1ccccc1C(=O)NCc1ccc(Cl)cc1Cl.[I-]
Non-Toxic: all assays above

CN(C)C(=O)[C@@H]1CCC(=O)N1
Non-Toxic: all assays above

O=C(NCc1ccc(Cl)cc1Cl)[C@@H]1CCC(=O)N1c1ccccc1
Non-Toxic: all assays above

O=C(Nc1ccc(Cl)cc1Cl)[C@@H]1CCC(=O)N1Cc1ccccc1Cl
Non-Toxic: all assays above

O=C1N[C@H](C(=O)NCc2ccc(Cl)cc2Cl)C/C1=C\N1CCOCC1
Non-Toxic: all assays above
